Results: the supplement of paper PMC11208160

Assay: recombinant UMI read abundance after kanamycin selection (control-corrected) (log10(CPM+1)); higher = more efficient recombination; extreme values may be limits of the assay; sequences stand for … in AGTGCAGAGAAAATCGGCCAGTTTTCTCTGCCTGCAGTCCGCATGCCGTGGGACCCCTTGGGTTCTAACCTGTTGCCTAGATTTATGCAGCGGACTGCCTTTCTCCCAAAGTGATAAACCGG…AGGTTGGTTTCACT; site = the 11-nt donor
Method: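 Pooled E. coli donor-specificity screen for the IS621 bridge recombinase. Each library member carries a reprogrammed 11-nt donor and a full-length LE bridge RNA expressed in cis from the natural promoter, with a paired donor-binding loop (8-nt LDG + 4-nt RDG) and a target-binding loop fixed to T5. It is co-electroporated with a T5 target plasmid; recombinase is induced with 0.07 mM IPTG and recombinants are selected on kanamycin. UMIs are counted as CPM, averaged over two biological replicates and corrected by the unselected control. Molecule = full bridge RNA written as DNA, built from the T5 scaffold: LDG = donor specificity nt 1-8, RDG = reverse complement of nt 8-11.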
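Note: IS621 bridge recombinase in Escherichia coli cells against a fixed T5 target plasmid.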

Sequence: ACAGTATCATGGACCGGTTTTCCCGGTAATCCGTATTTGAA (site ACAGTATCTTT)
- recombinant UMI read abundance (log10): 3.04

Sequence: ACAGTATCATGGACCGGTTTTCCCGGTAATCCGTATTTGAC (site ACAGTATCTGT)
- recombinant UMI read abundance (log10): 3.52

Sequence: ACAGTATCATGGACCGGTTTTCCCGGTAATCCGTATTTGAC (site ACAGTATCTTG)
- recombinant UMI read abundance (log10): 1.15

Sequence: ACAGTATCATGGACCGGTTTTCCCGGTAATCCGTATTTGAC (site CTAGTATCTGT)
- recombinant UMI read abundance (log10): 1.64

Sequence: ACAGTATCATGGACCGGTTTTCCCGGTAATCCGTATTTGCC (site ACAGTATCTAG)
- recombinant UMI read abundance (log10): 1.42

Sequence: ACAGTATCATGGACCGGTTTTCCCGGTAATCCGTATTTGCC (site ACAGTATCTCG)
- recombinant UMI read abundance (log10): 1.77

Sequence: ACAGTATCATGGACCGGTTTTCCCGGTAATCCGTATTTGCC (site ACAGTATCTGG)
- recombinant UMI read abundance (log10): 2.92

Sequence: ACAGTATCATGGACCGGTTTTCCCGGTAATCCGTATTTGCC (site ACAGTATCTTG)
- recombinant UMI read abundance (log10): 1.9

Sequence: ACAGTATCATGGACCGGTTTTCCCGGTAATCCGTATTTGTA (site ACAGTATCTTA)
- recombinant UMI read abundance (log10): 3.08

Sequence: ACAGTATCATGGACCGGTTTTCCCGGTAATCCGTATTTGTA (site ACAGTATCTTC)
- recombinant UMI read abundance (log10): 2.02

Sequence: ACAGTATCATGGACCGGTTTTCCCGGTAATCCGTATTTGTA (site ACAGTATCTTG)
- recombinant UMI read abundance (log10): 2.51

Sequence: ACAGTATCATGGACCGGTTTTCCCGGTAATCCGTATTTGTA (site ACAGTATCTTT)
- recombinant UMI read abundance (log10): 2.44

Sequence: ACAGTGTCATGGACCGGTTTTCCCGGTAATCCGTATTTGAA (site ACAGTATCTTG)
- recombinant UMI read abundance (log10): 1.04

Sequence: ACAGTGTCATGGACCGGTTTTCCCGGTAATCCGTATTTGAA (site ACAGTGTCTTT)
- recombinant UMI read abundance (log10): 3.19

Sequence: ACAGTTCCATGGACCGGTTTTCCCGGTAATCCGTATTTGCC (site ACAGTTCCTGG)
- recombinant UMI read abundance (log10): 0

Sequence: ACATCAACATGGACCGGTTTTCCCGGTAATCCGTATTTGTC (site ACATCAACTGA)
- recombinant UMI read abundance (log10): 1.34

Sequence: ACATCAACATGGACCGGTTTTCCCGGTAATCCGTATTTGTG (site ACATCAACTCA)
- recombinant UMI read abundance (log10): 0.878

Sequence: ACATCAACATGGACCGGTTTTCCCGGTAATCCGTATTTGTG (site ACATCCACTCA)
- recombinant UMI read abundance (log10): 0.0219

Sequence: ACATCAACATGGACCGGTTTTCCCGGTAATCCGTATTTGTG (site ACATCGACTCA)
- recombinant UMI read abundance (log10): 0.0265

Sequence: ACATCAACATGGACCGGTTTTCCCGGTAATCCGTATTTGTG (site ACATCTACTCA)
- recombinant UMI read abundance (log10): 0.206

Sequence: ACATCCTCATGGACCGGTTTTCCCGGTAATCCGTATTTGTC (site ACATCCTCTGA)
- recombinant UMI read abundance (log10): 2.8

Sequence: ACATGTACATGGACCGGTTTTCCCGGTAATCCGTATTTGAC (site ACATGTACTGT)
- recombinant UMI read abundance (log10): 1.76

Sequence: ACATTATCATGGACCGGTTTTCCCGGTAATCCGTATTTGCA (site ACAATATCTTG)
- recombinant UMI read abundance (log10): 1.92

Sequence: ACATTATCATGGACCGGTTTTCCCGGTAATCCGTATTTGCA (site ACACTATCTTG)
- recombinant UMI read abundance (log10): 2.24

Sequence: ACATTATCATGGACCGGTTTTCCCGGTAATCCGTATTTGCA (site ACAGTATCTTG)
- recombinant UMI read abundance (log10): 1.69

Sequence: ACATTATCATGGACCGGTTTTCCCGGTAATCCGTATTTGCA (site ACATTATCTTG)
- recombinant UMI read abundance (log10): 2.01

Sequence: ACCAACCCATGGACCGGTTTTCCCGGTAATCCGTATTTGCG (site ACCAACCCTCG)
- recombinant UMI read abundance (log10): 0

Sequence: ACCAAGACATGGACCGGTTTTCCCGGTAATCCGTATTTGGG (site ACCAAGACTCC)
- recombinant UMI read abundance (log10): 0.0181

Sequence: ACCAAGACATGGACCGGTTTTCCCGGTAATCCGTATTTGGG (site ACCCAGACTCC)
- recombinant UMI read abundance (log10): 0.0318

Sequence: ACCAAGACATGGACCGGTTTTCCCGGTAATCCGTATTTGGG (site ACCGAGACTCC)
- recombinant UMI read abundance (log10): 0.0218

Sequence: ACCAAGACATGGACCGGTTTTCCCGGTAATCCGTATTTGGG (site ACCTAGACTCC)
- recombinant UMI read abundance (log10): 0.0189

Sequence: ACCAGAACATGGACCGGTTTTCCCGGTAATCCGTATTTGAA (site ACCAGAACTTT)
- recombinant UMI read abundance (log10): 1.72

Sequence: ACCAGTCCATGGACCGGTTTTCCCGGTAATCCGTATTTGCG (site GATGCATCTTA)
- recombinant UMI read abundance (log10): 0

Sequence: ACCAGTGCATGGACCGGTTTTCCCGGTAATCCGTATTTGGT (site ACAAGTGCTAC)
- recombinant UMI read abundance (log10): 0.0927

Sequence: ACCAGTGCATGGACCGGTTTTCCCGGTAATCCGTATTTGGT (site ACCAGTGCTAC)
- recombinant UMI read abundance (log10): 0.472

Sequence: ACCAGTGCATGGACCGGTTTTCCCGGTAATCCGTATTTGGT (site ACGAGTGCTAC)
- recombinant UMI read abundance (log10): 0.0125

Sequence: ACCAGTGCATGGACCGGTTTTCCCGGTAATCCGTATTTGGT (site ACTAGTGCTAC)
- recombinant UMI read abundance (log10): 0.19

Sequence: ACCCAAGCATGGACCGGTTTTCCCGGTAATCCGTATTTGAG (site AACCAAGCTCT)
- recombinant UMI read abundance (log10): 0.712

Sequence: ACCCAAGCATGGACCGGTTTTCCCGGTAATCCGTATTTGAG (site ACCCAAGCTCT)
- recombinant UMI read abundance (log10): 1.97

Sequence: ACCCAAGCATGGACCGGTTTTCCCGGTAATCCGTATTTGAG (site AGCCAAGCTCT)
- recombinant UMI read abundance (log10): 0.021

Sequence: ACCCAAGCATGGACCGGTTTTCCCGGTAATCCGTATTTGAG (site ATCCAAGCTCT)
- recombinant UMI read abundance (log10): 0.467

Sequence: ACCCACCCATGGACCGGTTTTCCCGGTAATCCGTATTTGAG (site ACCCACCCTCT)
- recombinant UMI read abundance (log10): 0.00795

Sequence: ACCCTAGCATGGACCGGTTTTCCCGGTAATCCGTATTTGAT (site ACCCTAGCTAT)
- recombinant UMI read abundance (log10): 0.558

Sequence: ACCCTCTCATGGACCGGTTTTCCCGGTAATCCGTATTTGGG (site ACCCTCTCTCC)
- recombinant UMI read abundance (log10): 0.0124

Sequence: ACCGAGGCATGGACCGGTTTTCCCGGTAATCCGTATTTGGG (site ACCGAGGCTCC)
- recombinant UMI read abundance (log10): 0.157

Sequence: ACCGCGGCATGGACCGGTTTTCCCGGTAATCCGTATTTGAT (site ACCGCGGCTAT)
- recombinant UMI read abundance (log10): 1.78

Sequence: ACCGGATCATGGACCGGTTTTCCCGGTAATCCGTATTTGAG (site ACCGGATCTCT)
- recombinant UMI read abundance (log10): 1.22

Sequence: ACCGGATCATGGACCGGTTTTCCCGGTAATCCGTATTTGCG (site ACCGGATCTCG)
- recombinant UMI read abundance (log10): 2.56

Sequence: ACCGTAACATGGACCGGTTTTCCCGGTAATCCGTATTTGCA (site ACAGTATCTTG)
- recombinant UMI read abundance (log10): 1.49

Sequence: ACCGTAACATGGACCGGTTTTCCCGGTAATCCGTATTTGCA (site ACCGTAACTTG)
- recombinant UMI read abundance (log10): 2.34

Sequence: ACCGTATCATGGACCGGTTTTCCCGGTAATCCGTATTTGGA (site ACAGTATCTTG)
- recombinant UMI read abundance (log10): 0.692

Sequence: ACCGTATCATGGACCGGTTTTCCCGGTAATCCGTATTTGGA (site ACCGTATCTTC)
- recombinant UMI read abundance (log10): 1.83

Sequence: ACCTAGACATGGACCGGTTTTCCCGGTAATCCGTATTTGGA (site ACCTAGACTAC)
- recombinant UMI read abundance (log10): 0

Sequence: ACCTAGACATGGACCGGTTTTCCCGGTAATCCGTATTTGGA (site ACCTAGACTCC)
- recombinant UMI read abundance (log10): 0.0104

Sequence: ACCTAGACATGGACCGGTTTTCCCGGTAATCCGTATTTGGA (site ACCTAGACTGC)
- recombinant UMI read abundance (log10): 0

Sequence: ACCTAGACATGGACCGGTTTTCCCGGTAATCCGTATTTGGA (site ACCTAGACTTC)
- recombinant UMI read abundance (log10): 0.725

Sequence: ACCTAGTCATGGACCGGTTTTCCCGGTAATCCGTATTTGGG (site ACCTAGACTCC)
- recombinant UMI read abundance (log10): 0

Sequence: ACCTAGTCATGGACCGGTTTTCCCGGTAATCCGTATTTGGG (site ACCTAGCCTCC)
- recombinant UMI read abundance (log10): 0.017

Sequence: ACCTAGTCATGGACCGGTTTTCCCGGTAATCCGTATTTGGG (site ACCTAGGCTCC)
- recombinant UMI read abundance (log10): 0.0399

Sequence: ACCTAGTCATGGACCGGTTTTCCCGGTAATCCGTATTTGGG (site ACCTAGTCTCC)
- recombinant UMI read abundance (log10): 0.0642

Sequence: ACCTATACATGGACCGGTTTTCCCGGTAATCCGTATTTGAC (site AACTATACTGT)
- recombinant UMI read abundance (log10): 0

Sequence: ACCTATACATGGACCGGTTTTCCCGGTAATCCGTATTTGAC (site ACCTATACTGT)
- recombinant UMI read abundance (log10): 1.58

Sequence: ACCTATACATGGACCGGTTTTCCCGGTAATCCGTATTTGAC (site AGCTATACTGT)
- recombinant UMI read abundance (log10): 0.0116

Sequence: ACCTATACATGGACCGGTTTTCCCGGTAATCCGTATTTGAC (site ATCTATACTGT)
- recombinant UMI read abundance (log10): 0.368

Sequence: ACCTCGGCATGGACCGGTTTTCCCGGTAATCCGTATTTGTT (site ACCTCGGCTAA)
- recombinant UMI read abundance (log10): 0.681

Sequence: ACCTGGGCATGGACCGGTTTTCCCGGTAATCCGTATTTGCA (site ACCTGGGCTTG)
- recombinant UMI read abundance (log10): 0.909

Sequence: ACCTTGACATGGACCGGTTTTCCCGGTAATCCGTATTTGGG (site ACCTAGACTCC)
- recombinant UMI read abundance (log10): 0.0118

Sequence: ACCTTGACATGGACCGGTTTTCCCGGTAATCCGTATTTGGG (site ACCTCGACTCC)
- recombinant UMI read abundance (log10): 0.0142

Sequence: ACCTTGACATGGACCGGTTTTCCCGGTAATCCGTATTTGGG (site ACCTGGACTCC)
- recombinant UMI read abundance (log10): 0.0127

Sequence: ACCTTGACATGGACCGGTTTTCCCGGTAATCCGTATTTGGG (site ACCTTGACTCC)
- recombinant UMI read abundance (log10): 0.0408

Sequence: ACGAAGACATGGACCGGTTTTCCCGGTAATCCGTATTTGCA (site AAGAAGACTTG)
- recombinant UMI read abundance (log10): 2.3

Sequence: ACGAAGACATGGACCGGTTTTCCCGGTAATCCGTATTTGCA (site ACGAAGACTTG)
- recombinant UMI read abundance (log10): 2.78
